What was measured:
[1] = Photochromic characteristics of 2 mm molded thermosetting resin piece containing the spiroxazine; format: physicochemical
Method: The compound synthesized in Example 1, which was represented by the following formula: [drawing 286] was dissolved and dispersed in polymethyl methacrylate with the aid of benzene, and a cast film was prepared on a slide glass sheet (11.2 cm×3.7 cm) so that the concentration of the compound in the film was 1.0×10^-4 mol/g and the thickness of the film was 0.1 mm. The photochromic film was irradiated with rays of a mercury lamp (SHL-100 supplied by Toshiba) located 10 cm apart from the film at 35° C.+1° C. for 60 seconds to effect coloration in the film, and the photochromic characteristics were examined with respect to items described below.
Maximum absorption wavelength (λmax):
The maximum absorption wavelength λmax of the colored film was determined by using a spectrophotometer (220 A supplied by Hitachi).
After 60 seconds' irradiation under the above-mentioned conditions, the absorbance at the maximum absorption wavelength was measured.
The absorbance at the maximum absorption wavelength of the unirradiated film was measured. Half-value period t^1/2 :
After 60 seconds' irradiation, the time required for reduction of the absorbance of the film to 1/2 of [ε(60 seconds)-ε(0 second)] was measured.
0.4 parts by weight of the spiroxazine synthesized in Example 1 was added to a composition of 70 parts by weight of chlorostyrene with 30 parts by weight of 2,2-bis(3,5-dibromo-4-methacryloyloxyethoxyphenyl) propane. One part by weight of perbutyl ND was added to the composition as an initiator of radical polymerization and was sufficiently mixed. The mixture liquid was casted into a mold comprising a glass plate and a gasket made of an ethylene-vinyl acetate copolymer and was polymerized in the mold. The mold was placed in an air oven. Polymerization was carried out by gradually elevating the temperature of the air oven from 30° C. to 90° C. for 18 hours and keeping it at 90° C. over a period of 2 hours. After the termination of the polymerization, the mold was removed from the air oven. After the mold was allowed to cool, the polymer molded piece was removed from the glass of the mold.
The photochromic characteristics of the obtained molded piece having a thickness of 2 mm was measured in the same method as Example 65.
Excepting that the kinds and amounts of the monomers and the spiroxazine used in Example 129 were changed and polymerization was carried out by a known means depending on the monomers, Examples 130 to 144 are identical with Example 129.

[2] = Photochromic characteristics of cast polymethyl methacrylate film (coloration under mercury lamp, fading); format: physicochemical; settings: PMMA film, 1.0×10^-4 mol/g, 0.1 mm, 35° C.
[3] = Example 129: BMDBP/c1-st (30/70), compound 0.4 parts, 2 mm
[4] = Example 130: ADC (100), compound 0.001 parts
[5] = Example 131: TMP-TAC(100), compound 0.4 parts
[6] = Example 132: BADBP/DAP (60/40), compound 0.4 parts
[7] = Example 133: BMDBP/st (50/50), compound 10 parts
[8] = Example 134: DCIPF/st (70/30), compound 70 parts
[9] = Example 135: EGDMA/st (50/50), compound 30 parts
[10] = Example 136: monomer composition drawn as drawing 288, compound 1.0 parts
[11] = Example 137: monomer composition drawn as drawing 289, compound 0.6 parts
[12] = Example 138: DVB/PETTP(60/40), compound 0.03 parts
[13] = Example 139: XIC/DME (58/42), compound 0.2 parts
[14] = Example 140: XIC/HPA/DVB (10/50/40), compound 0.4 parts
[15] = Example 141: MMA/DEGDMA (70/30), compound 0.1 parts
[16] = Example 142: BADBPO/TBBM/DAP (50/30/20), compound 0.1 parts
[17] = Example 143: HEMA/XIC/BMA (30/20/50), compound 0.1 parts
[18] = Example 144: DEGDMA/BMA (40/60), compound 0.1 parts

Structure (SMILES): CN1c2ccccc2C2(CCCCC2)C12C=Nc1ccc3ccccc3c1O2 (stereo not drawn) [Compound 1]
- t1/2 [1, 3]: 20 s
- ε(60 sec)-ε(0 sec) [1, 3]: 1.6
- λmax [1, 3]: 604 nm
- t1/2 [1, 4]: 24 s
- ε(60 sec)-ε(0 sec) [1, 4]: 0.9
- λmax [1, 4]: 607 nm
- t1/2 [1, 5]: 28 s
- ε(60 sec)-ε(0 sec) [1, 5]: 1.5
- λmax [1, 5]: 607 nm
- t1/2 [1, 6]: 21 s
- ε(60 sec)-ε(0 sec) [1, 6]: 1.5
- λmax [1, 6]: 606 nm
- t1/2 [1, 7]: 20 s
- ε(60 sec)-ε(0 sec) [1, 7]: 1.7
- λmax [1, 7]: 604 nm
- t1/2 [1, 8]: 18 s
- ε(60 sec)-ε(0 sec) [1, 8]: 1.8
- λmax [1, 8]: 604 nm
- t1/2 [1, 9]: 19 s
- ε(60 sec)-ε(0 sec) [1, 9]: 1.7
- λmax [1, 9]: 604 nm
- t1/2 [1, 10]: 20 s
- ε(60 sec)-ε(0 sec) [1, 10]: 1.6
- λmax [1, 10]: 601 nm
- t1/2 [1, 11]: 22 s
- ε(60 sec)-ε(0 sec) [1, 11]: 1.6
- λmax [1, 11]: 601 nm
- t1/2 [1, 12]: 22 s
- ε(60 sec)-ε(0 sec) [1, 12]: 1.5
- λmax [1, 12]: 606 nm
- t1/2 [1, 13]: 19 s
- ε(60 sec)-ε(0 sec) [1, 13]: 1.5
- λmax [1, 13]: 604 nm
- t1/2 [1, 14]: 19 s
- ε(60 sec)-ε(0 sec) [1, 14]: 1.6
- λmax [1, 14]: 604 nm
- t1/2 [1, 15]: 18 s
- ε(60 sec)-ε(0 sec) [1, 15]: 1.6
- λmax [1, 15]: 601 nm
- t1/2 [1, 16]: 23 s
- ε(60 sec)-ε(0 sec) [1, 16]: 1.6
- λmax [1, 16]: 606 nm
- t1/2 [1, 17]: 22 s
- ε(60 sec)-ε(0 sec) [1, 17]: 1.6
- λmax [1, 17]: 601 nm
- t1/2 [1, 18]: 19 s
- ε(60 sec)-ε(0 sec) [1, 18]: 1.6
- λmax [1, 18]: 601 nm
- t1/2 (half-value period of absorbance after irradiation) ([2]; after 60 seconds' irradiation): 18 s
- λ max (maximum absorption wavelength of the colored film) ([2]; mercury lamp 60 seconds): 601
- ε (60 seconds)-ε (0 second) ([2]; mercury lamp 60 seconds, absorbance at λmax): 1.4
